Measurements from PMC6409085, “Three odorant-binding proteins are involved in the behavioral response of Sogatella furcifera to rice plant volatiles” (PeerJ, 2019).
Where “and” joins values, the source holds several entries; their conditions need not be identical. Equal values may be shown once.

Experiments:
Assay in all cases: biochemical
Type in all cases: binding
SfurOBP11 = SfurOBP11 (Sogatella furcifera, UniProt V5T6E3)
Procedure: (§1) Thirty-six rice odorants ([He et al., 2014]; [Wang et al., 2017]) and 1-N-phenyl-naphthylamine (1-NPN) were purchased from Sigma-Aldrich (St Louis, MO, USA). These odorants and 1-NPN were dissolved in high-performance liquid chromatography (HPLC) purify grade methanol for 1.0 mM as work solution.
(§2) Fluorescence competitive binding assays were performed on Tecan Spark 10M (Tecan Group Ltd., Männedorf, Switzerland) with the F96 Black ELIAS Plate (Sangon) ([Khuhro et al., 2017]; [Liu et al., 2017]). The solutions were excited at 337 nm and emission spectra were recorded between 390 and 490 nm. First, to test the binding constants of 1-NPN to the SfurOBPs, a 2.0 µM solution of protein in 50 mM Tris-HCl (pH = 7.4) was titrated with 1 mM 1-NPN to achieve virous concentrations. Next, the competitive binding of each odorant was measured using the 1-NPN as fluorescent reporter and odorant as competitor. The concentrations of protein and 1-NPN were both 2.0 µM, the odorant added after protein and 1-NPN added into the well of ELIAS Plate for 2 min. The final concentrations of each competitor were 2, 4, 6, 8, 10, 12, 14, 16, 18 and 20 µM. After 2 min of odorant added, the fluorescence intensity was measured and recorded. The volume of mixed solution in each well was maintained at 250 µL. Each interaction was performed in triplicates.
(§3) GraphPad Prism 7.0 software (GraphPad Software, Inc., La Jolla, CA, USA) was used to calculated and generated the binding constants (K1−NPN) of 1-NPN to SfurOBPs and relative Scatchard plots ([Ban et al., 2003]; [Li et al., 2016]). Dissociation constant (Ki) of each odorant to SfurOBP was computed from the corresponding IC50 value (the half maximal inhibitory concentration), using the following equation: Ki=[IC50]/(1 + [1-NPN]/K1−NPN), where [1-NPN] is the free concentration of 1-NPN and K1−NPN is the dissociation constant of the complex protein/1-NPN.

SfurOBP1 = SfurOBP1 (Sogatella furcifera, UniProt V5T8N5); settings: for Fluorescence competitive binding assay, fluorescence intensity: OBP1, three replicate columns
Sequence of SfurOBP1 (V5T8N5 entry or part of it): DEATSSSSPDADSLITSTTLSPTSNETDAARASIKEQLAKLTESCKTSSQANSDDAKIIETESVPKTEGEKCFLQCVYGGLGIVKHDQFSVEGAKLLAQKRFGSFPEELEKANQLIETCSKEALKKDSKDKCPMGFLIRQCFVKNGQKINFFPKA
Procedure: as §1, §2, §3

SfurOBP3 = SfurOBP3 (Sogatella furcifera, UniProt V5T818); settings: for Fluorescence competitive binding assay, fluorescence intensity: OBP3, three replicate columns
Sequence of SfurOBP3 (V5T818 entry or part of it): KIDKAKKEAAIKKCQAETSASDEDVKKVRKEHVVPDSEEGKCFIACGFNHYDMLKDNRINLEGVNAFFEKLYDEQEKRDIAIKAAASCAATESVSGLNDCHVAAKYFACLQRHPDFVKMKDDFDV
Procedure: as §1, §2, §3

SfurOBP2 = SfurOBP2 (Sogatella furcifera, UniProt V5T759)
Sequence of SfurOBP2 (V5T759 entry or part of it): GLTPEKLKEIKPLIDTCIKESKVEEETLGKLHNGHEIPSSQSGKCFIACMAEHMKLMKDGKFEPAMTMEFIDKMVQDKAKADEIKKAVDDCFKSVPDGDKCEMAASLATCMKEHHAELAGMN
Procedure: as §1, §2, §3

Sequence of SfurOBP11 (V5T6E3 entry or part of it): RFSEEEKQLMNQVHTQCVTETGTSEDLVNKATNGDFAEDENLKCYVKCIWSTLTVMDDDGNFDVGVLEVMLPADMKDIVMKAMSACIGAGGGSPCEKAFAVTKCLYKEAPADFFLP

Cc1cc(C(C)(C)C)c(O)c(C(C)(C)C)c1 [BHT(2,6-di-tert-butyl-4-methylphenol)]
Fluorescence intensity, fluorescence competitive binding assay, OBP11 (SfurOBP11; ligand concentration 2, replicate 1): 23825 | Fluorescence intensity, fluorescence competitive binding assay, OBP11 (SfurOBP11; ligand concentration 2, replicate 2): 22642 | Fluorescence intensity, fluorescence competitive binding assay, OBP11 (SfurOBP11; ligand concentration 2, replicate 3): 21527 | Fluorescence intensity, fluorescence competitive binding assay, OBP11 (SfurOBP11; ligand concentration 4, replicate 1): 20143 | Fluorescence intensity, fluorescence competitive binding assay, OBP11 (SfurOBP11; ligand concentration 4, replicate 2): 21258 | Fluorescence intensity, fluorescence competitive binding assay, OBP11 (SfurOBP11; ligand concentration 4, replicate 3): 22100 | Fluorescence intensity, fluorescence competitive binding assay, OBP11 (SfurOBP11; ligand concentration 6, replicate 1): 20464 | Fluorescence intensity, fluorescence competitive binding assay, OBP11 (SfurOBP11; ligand concentration 6, replicate 2): 20607 | Fluorescence intensity, fluorescence competitive binding assay, OBP11 (SfurOBP11; ligand concentration 6, replicate 3): 21862 | Fluorescence intensity, fluorescence competitive binding assay, OBP11 (SfurOBP11; ligand concentration 8, replicate 1): 19852 | Fluorescence intensity, fluorescence competitive binding assay, OBP11 (SfurOBP11; ligand concentration 8, replicate 2): 19956 | Fluorescence intensity, fluorescence competitive binding assay, OBP11 (SfurOBP11; ligand concentration 8, replicate 3): 20060 | Fluorescence intensity, fluorescence competitive binding assay, OBP11 (SfurOBP11; ligand concentration 10, replicate 1): 19539 | Fluorescence intensity, fluorescence competitive binding assay, OBP11 (SfurOBP11; ligand concentration 10, replicate 2): 18542 | Fluorescence intensity, fluorescence competitive binding assay, OBP11 (SfurOBP11; ligand concentration 10, replicate 3): 20536 | Fluorescence intensity, fluorescence competitive binding assay, OBP11 (SfurOBP11; ligand concentration 12, replicate 1): 18948 | Fluorescence intensity, fluorescence competitive binding assay, OBP11 (SfurOBP11; ligand concentration 12, replicate 2): 19227 | Fluorescence intensity, fluorescence competitive binding assay, OBP11 (SfurOBP11; ligand concentration 12, replicate 3): 18669 | Fluorescence intensity, fluorescence competitive binding assay, OBP11 (SfurOBP11; ligand concentration 14, replicate 1): 16147 | Fluorescence intensity, fluorescence competitive binding assay, OBP11 (SfurOBP11; ligand concentration 14, replicate 2): 16112 | Fluorescence intensity, fluorescence competitive binding assay, OBP11 (SfurOBP11; ligand concentration 14, replicate 3): 15881 | Fluorescence intensity, fluorescence competitive binding assay, OBP11 (SfurOBP11; ligand concentration 16, replicate 1): 16019 | Fluorescence intensity, fluorescence competitive binding assay, OBP11 (SfurOBP11; ligand concentration 16, replicate 2): 15985 | Fluorescence intensity, fluorescence competitive binding assay, OBP11 (SfurOBP11; ligand concentration 16, replicate 3): 16022 | Fluorescence intensity, fluorescence competitive binding assay, OBP11 (SfurOBP11; ligand concentration 18, replicate 1): 16028 | Fluorescence intensity, fluorescence competitive binding assay, OBP11 (SfurOBP11; ligand concentration 18, replicate 2): 15902 | Fluorescence intensity, fluorescence competitive binding assay, OBP11 (SfurOBP11; ligand concentration 18, replicate 3): 15995 | Fluorescence intensity, fluorescence competitive binding assay, OBP11 (SfurOBP11; ligand concentration 20, replicate 1): 15978 | Fluorescence intensity, fluorescence competitive binding assay, OBP11 (SfurOBP11; ligand concentration 20, replicate 2): 15860 | Fluorescence intensity, fluorescence competitive binding assay, OBP11 (SfurOBP11; ligand concentration 20, replicate 3): 15984 | Fluorescence competitive binding assay, fluorescence intensity (SfurOBP1; ligand concentration 2 (μM)): 6030 and 6058 and 6096 | Fluorescence competitive binding assay, fluorescence intensity (SfurOBP1; ligand concentration 4 (μM)): 6092 and 6318 and 6150 | Fluorescence competitive binding assay, fluorescence intensity (SfurOBP1; ligand concentration 6 (μM)): 6520 and 6547 and 6496 | Fluorescence competitive binding assay, fluorescence intensity (SfurOBP1; ligand concentration 8 (μM)): 6548 and 6679 and 6600 | Fluorescence competitive binding assay, fluorescence intensity (SfurOBP1; ligand concentration 10 (μM)): 6739 and 6709 and 6666 | Fluorescence competitive binding assay, fluorescence intensity (SfurOBP1; ligand concentration 12 (μM)): 6775 and 6778 and 6802 | Fluorescence competitive binding assay, fluorescence intensity (SfurOBP1; ligand concentration 14 (μM)): 6847 and 6906 and 6978 | Fluorescence competitive binding assay, fluorescence intensity (SfurOBP1; ligand concentration 16 (μM)): 6943 and 7135 and 6900 | Fluorescence competitive binding assay, fluorescence intensity (SfurOBP1; ligand concentration 18 (μM)): 7439 and 7058 and 7176 | Fluorescence competitive binding assay, fluorescence intensity (SfurOBP1; ligand concentration 20 (μM)): 7203 and 7412 and 7729 | Fluorescence competitive binding assay, fluorescence intensity (SfurOBP3; ligand concentration 2): 62922 and 62019 and 61313 | Fluorescence competitive binding assay, fluorescence intensity (SfurOBP3; ligand concentration 4): 80496 and 109930 and 48944 | Fluorescence competitive binding assay, fluorescence intensity (SfurOBP3; ligand concentration 6): 58503 and 58107 and 50633 | Fluorescence competitive binding assay, fluorescence intensity (SfurOBP3; ligand concentration 8): 41822 and 72799 and 53759 | Fluorescence competitive binding assay, fluorescence intensity (SfurOBP3; ligand concentration 10): 69788 and 72654 and 85946 | Fluorescence competitive binding assay, fluorescence intensity (SfurOBP3; ligand concentration 12): 60000 and 90914 and 74114 | Fluorescence competitive binding assay, fluorescence intensity (SfurOBP3; ligand concentration 14): 74285 and 75475 and 71382 | Fluorescence competitive binding assay, fluorescence intensity (SfurOBP3; ligand concentration 16): 52587 and 87313 and 65294 | Fluorescence competitive binding assay, fluorescence intensity (SfurOBP3; ligand concentration 18): 52719 and 70169 and 103842 | Fluorescence competitive binding assay, fluorescence intensity (SfurOBP3; ligand concentration 20): 122349 and 93664 and 80933 | Fluorescence competitive binding assay, OBP2 (raw fluorescence reading) (SfurOBP2; ligand concentration 2 (unit not given), replicate column 1 of 3): 17266 | Fluorescence competitive binding assay, OBP2 (raw fluorescence reading) (SfurOBP2; ligand concentration 2 (unit not given), replicate column 2 of 3): 17491 | Fluorescence competitive binding assay, OBP2 (raw fluorescence reading) (SfurOBP2; ligand concentration 2 (unit not given), replicate column 3 of 3): 17183 | Fluorescence competitive binding assay, OBP2 (raw fluorescence reading) (SfurOBP2; ligand concentration 4 (unit not given), replicate column 1 of 3): 14970 | Fluorescence competitive binding assay, OBP2 (raw fluorescence reading) (SfurOBP2; ligand concentration 4 (unit not given), replicate column 2 of 3): 16711 | Fluorescence competitive binding assay, OBP2 (raw fluorescence reading) (SfurOBP2; ligand concentration 4 (unit not given), replicate column 3 of 3): 16317 | Fluorescence competitive binding assay, OBP2 (raw fluorescence reading) (SfurOBP2; ligand concentration 6 (unit not given), replicate column 1 of 3): 15662 | Fluorescence competitive binding assay, OBP2 (raw fluorescence reading) (SfurOBP2; ligand concentration 6 (unit not given), replicate column 2 of 3): 16983 | Fluorescence competitive binding assay, OBP2 (raw fluorescence reading) (SfurOBP2; ligand concentration 6 (unit not given), replicate column 3 of 3): 15070 | Fluorescence competitive binding assay, OBP2 (raw fluorescence reading) (SfurOBP2; ligand concentration 8 (unit not given), replicate column 1 of 3): 15947 | Fluorescence competitive binding assay, OBP2 (raw fluorescence reading) (SfurOBP2; ligand concentration 8 (unit not given), replicate column 2 of 3): 15853 | Fluorescence competitive binding assay, OBP2 (raw fluorescence reading) (SfurOBP2; ligand concentration 8 (unit not given), replicate column 3 of 3): 15572 | Fluorescence competitive binding assay, OBP2 (raw fluorescence reading) (SfurOBP2; ligand concentration 10 (unit not given), replicate column 1 of 3): 14398 | Fluorescence competitive binding assay, OBP2 (raw fluorescence reading) (SfurOBP2; ligand concentration 10 (unit not given), replicate column 2 of 3): 14630 | Fluorescence competitive binding assay, OBP2 (raw fluorescence reading) (SfurOBP2; ligand concentration 10 (unit not given), replicate column 3 of 3): 15652 | Fluorescence competitive binding assay, OBP2 (raw fluorescence reading) (SfurOBP2; ligand concentration 12 (unit not given), replicate column 1 of 3): 14856 | Fluorescence competitive binding assay, OBP2 (raw fluorescence reading) (SfurOBP2; ligand concentration 12 (unit not given), replicate column 2 of 3): 14795 | Fluorescence competitive binding assay, OBP2 (raw fluorescence reading) (SfurOBP2; ligand concentration 12 (unit not given), replicate column 3 of 3): 14083 | Fluorescence competitive binding assay, OBP2 (raw fluorescence reading) (SfurOBP2; ligand concentration 14 (unit not given), replicate column 1 of 3): 12632 | Fluorescence competitive binding assay, OBP2 (raw fluorescence reading) (SfurOBP2; ligand concentration 14 (unit not given), replicate column 2 of 3): 13317 | Fluorescence competitive binding assay, OBP2 (raw fluorescence reading) (SfurOBP2; ligand concentration 14 (unit not given), replicate column 3 of 3): 14001 | Fluorescence competitive binding assay, OBP2 (raw fluorescence reading) (SfurOBP2; ligand concentration 16 (unit not given), replicate column 1 of 3): 12208 | Fluorescence competitive binding assay, OBP2 (raw fluorescence reading) (SfurOBP2; ligand concentration 16 (unit not given), replicate column 2 of 3): 12493 | Fluorescence competitive binding assay, OBP2 (raw fluorescence reading) (SfurOBP2; ligand concentration 16 (unit not given), replicate column 3 of 3): 12411 | Fluorescence competitive binding assay, OBP2 (raw fluorescence reading) (SfurOBP2; ligand concentration 18 (unit not given), replicate column 1 of 3): 12799 | Fluorescence competitive binding assay, OBP2 (raw fluorescence reading) (SfurOBP2; ligand concentration 18 (unit not given), replicate column 2 of 3): 12350 | Fluorescence competitive binding assay, OBP2 (raw fluorescence reading) (SfurOBP2; ligand concentration 18 (unit not given), replicate column 3 of 3): 11202 | Fluorescence competitive binding assay, OBP2 (raw fluorescence reading) (SfurOBP2; ligand concentration 20 (unit not given), replicate column 1 of 3): 12923 | Fluorescence competitive binding assay, OBP2 (raw fluorescence reading) (SfurOBP2; ligand concentration 20 (unit not given), replicate column 2 of 3): 12557 | Fluorescence competitive binding assay, OBP2 (raw fluorescence reading) (SfurOBP2; ligand concentration 20 (unit not given), replicate column 3 of 3): 10378

CCCCCCCCCCCCCCCC(=O)OC [methyl hexadecanoate]
IC50 (SfurOBP11; SfurOBP11, protein and 1-NPN both 2.0 µM, competitor 2-20 µM, read-out: IC50): > 20 µM | IC50 (SfurOBP1; SfurOBP1, protein and 1-NPN both 2.0 µM, competitor 2-20 µM, read-out: IC50): > 20 µM | IC50 (SfurOBP3; SfurOBP3, protein and 1-NPN both 2.0 µM, competitor 2-20 µM, read-out: IC50): > 20 µM | IC50 (SfurOBP2; SfurOBP2, protein and 1-NPN both 2.0 µM, competitor 2-20 µM, read-out: IC50): > 20 µM
